Measured values reported in PubChem BioAssay (NCI).
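Exposure lasted 48 hours, with cells grown in 96-well plates and compounds tested at five concentrations. At the GI50, growth is halved. TGI marks complete inhibition of growth.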

Columns and labels:
Assay in all cases: NCI anticancer screen, dose series, 48 h
HCT-15 colon = system: HCT-15 colon
COLO 205 colon = system: COLO 205 colon
SF-539 CNS = system: SF-539 CNS
A549 NSCLC = system: A549 NSCLC
UACC-62 melanoma = system: UACC-62 melanoma
MALME-3M melanoma = system: MALME-3M melanoma
SNB-75 CNS = system: SNB-75 CNS
SR leukemia = system: SR leukemia
HS 578T breast = system: HS 578T breast
NCI-H522 lung = system: NCI-H522 lung

SMILES	TGI (HCT-15 colon)	TGI (COLO 205 colon)	TGI (SF-539 CNS)	TGI (A549 NSCLC)	TGI (UACC-62 melanoma)	TGI (MALME-3M melanoma)	TGI (SNB-75 CNS)	TGI (SR leukemia)	GI50 (HCT-15 colon)	GI50 (COLO 205 colon)	GI50 (A549 NSCLC)	GI50 (SNB-75 CNS)	GI50 (SR leukemia)	GI50 (HS 578T breast)	TGI (HS 578T breast)	TGI (NCI-H522 lung)	GI50 (SF-539 CNS)	GI50 (NCI-H522 lung)	GI50 (UACC-62 melanoma)	GI50 (MALME-3M melanoma)
CCCCCCc1cc(C(=O)Nc2cccc(C(F)(F)F)c2)nc(N)n1	> 100 µM	> 100 µM	> 100 µM	> 100 µM	> 100 µM	> 100 µM	> 100 µM	> 100 µM	–	–	–	–	–	–	–	–	–	–	–	–
O=C(/C(=C/c1ccc([N+](=O)[O-])cc1)c1ccccc1)c1ccccc1	> 100 µM	18.2 µM	–	> 100 µM	–	–	7.32 µM	> 100 µM	2850 nM	3.81 µM	3.8 µM	2110 nM	2790 nM	2.74 µM	> 100 µM	–	–	–	–	–
CCOC(=O)C(=O)Nc1c(CC)cccc1C(C)C	> 100 µM	> 100 µM	> 100 µM	> 100 µM	> 100 µM	> 100 µM	> 100 µM	–	–	–	–	–	–	–	–	–	–	–	–	–
Cc1cc2c(C)n(Cc3ccc(Cl)cc3Cl)nc2c(C#N)c1C	> 100 µM	> 100 µM	> 62.5 µM	> 100 µM	> 100 µM	> 81.6 µM	62 µM	> 100 µM	–	–	–	–	–	–	–	> 100 µM	–	–	–	–
CCN(C(=O)N1CCN(c2cc3c(cc2F)c(=O)c(C(=O)O)cn3C2CC2)CC1)c1nc(-c2ccc(C)cc2)cs1	> 100 µM	–	2.65 µM	> 100 µM	> 100 µM	–	5.08 µM	> 100 µM	341 nM	–	0.42 µM	1090 nM	269 nM	0.46 µM	4.28 µM	–	0.356 µM	1020 nM	837 nM	–
COc1ccc(N=c2ssc3c(=S)ssc23)cc1	52.5 µM	–	96.2 µM	> 100 µM	61.8 µM	> 100 µM	75.6 µM	20.1 µM	–	–	–	–	–	–	–	35.5 µM	–	–	–	–
CN(C)c1ccc2c(c1)Sc1cc(N(C)C)ccc1N2C(=O)c1ccccc1	> 100 µM	> 100 µM	> 100 µM	> 100 µM	> 100 µM	77.1 µM	66.3 µM	> 100 µM	59200 nM	> 100 µM	32.5 µM	15400 nM	14600 nM	10.8 µM	57.4 µM	–	38.2 µM	–	17500 nM	21.4 µM
Brc1cccc(C2SCc3nc4ccccc4n32)c1 (centres undefined)	35.9 µM	38.6 µM	40.9 µM	> 100 µM	31 µM	77.5 µM	3.51 µM	57.7 µM	–	–	–	–	–	–	–	36.6 µM	–	–	–	–
CCCCCCCCCCCC(=O)OCCOCCOCCOCCOCCOCc1ccc(OC)cc1	> 100 µM	> 100 µM	–	> 100 µM	> 100 µM	> 100 µM	> 100 µM	> 100 µM	–	–	–	–	–	–	–	> 100 µM	–	–	–	–
O=C1C(=O)N(c2ccc(Cl)c(Cl)c2)C(=O)C(=O)C1c1nc2ccccc2s1	> 100 µM	> 100 µM	> 100 µM	> 100 µM	> 100 µM	> 100 µM	> 100 µM	> 100 µM	–	–	–	–	–	–	–	> 100 µM	–	–	–	–
N#Cc1c(N/N=C/c2c(Cl)cccc2Cl)nc(N)nc1N1CCOCC1	57.4 µM	> 100 µM	30.4 µM	> 100 µM	31.4 µM	–	> 100 µM	3.18 µM	4520 nM	14.9 µM	19.1 µM	35500 nM	1100 nM	13.3 µM	82.1 µM	27.3 µM	7.24 µM	4350 nM	3700 nM	–
CCOC(=O)C(C)(c1cn(C)c2ccccc12)c1cn(C)c2ccccc12	> 100 µM	–	> 100 µM	> 100 µM	> 100 µM	> 100 µM	51.9 µM	–	–	–	–	–	–	–	–	–	–	–	–	–
CN(C)c1nc(=Nc2ccc3ccccc3c2)ss1	> 100 µM	23.2 µM	> 100 µM	> 100 µM	> 100 µM	> 100 µM	> 100 µM	75.3 µM	–	–	–	–	–	–	–	65.9 µM	–	–	–	–
CS(=O)(=O)Oc1cccc(/C=N/N=C(\N)NO)c1	> 100 µM	> 100 µM	> 100 µM	> 100 µM	19.5 µM	> 100 µM	> 100 µM	> 100 µM	–	–	–	–	–	–	–	> 100 µM	–	–	–	–
Cn1cnc2nc(Cl)nc(NC(C)(C)C(C)(C)O)c21	> 100 µM	> 100 µM	> 100 µM	> 100 µM	> 100 µM	> 100 µM	> 100 µM	> 100 µM	–	–	–	–	–	–	–	> 100 µM	–	–	–	–
C[Si](C)(C)OC1(C#N)C2C3CC4C2C(=O)C2C4C3C21 (centres undefined)	> 100 µM	> 100 µM	> 100 µM	> 100 µM	> 100 µM	> 100 µM	> 100 µM	> 100 µM	–	–	–	–	–	–	–	–	–	–	–	–
COc1ccc(OC)c(NC(=O)CCC/C(CC(=O)c2ccc(O)c(OC)c2)=N\NC(=O)C[N+](C)(C)C)c1	> 100 µM	> 100 µM	> 100 µM	> 100 µM	> 100 µM	> 100 µM	> 100 µM	> 100 µM	–	–	–	–	–	–	–	> 100 µM	–	–	–	–
Cc1ccc(-c2cc(-c3ccc(C)cc3)nc(NCCNc3ccnc4cc(Cl)ccc34)n2)cc1	3.16 µM	3.48 µM	3.6 µM	3.53 µM	3.38 µM	3.52 µM	3.02 µM	> 100 µM	1550 nM	1.69 µM	1.74 µM	1480 nM	623 nM	–	–	3.51 µM	1.91 µM	1750 nM	1770 nM	1.82 µM
O=C(O)C/C=C/CC(=O)O	> 100 µM	> 100 µM	–	> 100 µM	> 100 µM	> 100 µM	> 100 µM	> 100 µM	–	–	–	–	–	–	> 100 µM	> 100 µM	–	–	–	–
COC1CC(OS(=O)(=O)c2ccc(C)cc2)C(OC(=O)c2ccccc2)C(C)O1 (centres undefined)	> 100 µM	> 100 µM	> 100 µM	> 100 µM	> 100 µM	> 100 µM	> 100 µM	> 10 µM	> 100000 nM	> 100 µM	> 100 µM	> 10000 nM	–	–	–	> 100 µM	> 100 µM	> 100000 nM	–	> 100 µM
